Experimental findings from US20230232837A1, “NOVEL FORMULATIONS FOR INCREASING THE GERMINATION RATE OF FUNGAL SPORES” (priority 2020, published 2023) are described below.

Data set [1] has as its system Trichoderma atroviride strain T1. Briefly: Germination rate after air-drying with protectants, strain T1. It counts as cell-based. Particulars: after air-drying at room temperature overnight; material:spore 1:1, lecithin 1:10. On the procedure:
(§1) The spores of Trichoderma strains T1 and B35 were prepared by Solid State Fermentation (SSF) and harvested, then centrifuged to form a spore paste. T1 is used here as an abbreviation for Trichoderma atroviride strain T1 with a culture collection No. I123-7 (French collection), while B35 is used here as an abbreviation for Trichoderma asperellum strain B35, deposited in the German Culture collection under the No. DSM33245.
(§2) For the air-drying experiments (explained further below), in order to get a protectant-to-spore mass ratio of 1:1 (except for lecithin), 12 g of the spore paste was mixed with 3 g of the protectant in order to get a total of 15 g. The spore concentration in the paste is about 25%, which makes then 3 g of spore in contact with 3 g of protectant. The mixture of protectants and paste were mixed for 5 min and 3400 rpm using an Ultra-Turrax equipment (IKA T25). In case of the test for lecithin, 1.5 g of a 20% lecithin solution was added to 13.5 g of spore paste, then mixed according to the afore-mentioned procedure (5 min, 3400 rpm). After mixing, the mixture was poured into a tray and dried at room temperature overnight.
(§3) Germination rates were measured according to the following protocol: The sample with the spores is dispersed in sterile tap water to get a homogenous spore solution. Depending on the initial spore concentration, the sample may need to be diluted up to 1E+07 spores/mL. This dilution then is spread on agar plates (often, 100 μl of dilution spread on a Potato Dextrose Agar plate) with a sterile Drigalski spatula. Depending on the strain type, the plates are incubated at a certain temperature (for example 20° C. for Trichoderma used here) for some time (here 19-24 hours is used) to allow time for germination and forming hyphae. Subsequently, the spores on the plates are analyzed under the microscope in 8 to 10 randomly chosen areas. At least 200 germinated and non-germinated spores are counted. The viability (%) is calculated by 100 times the number of germinated spores to the total spores counted.
(§4) A test was conducted to compare lecithin against other known microbial stabilizers and protectant materials. These materials include different sugars, proteins, skim milk powder, and others. Initially, an air-drying technique in room temperature was used.
(§5) After the spores were air dried with different protectants at room temperature overnight, the germination rate and total dry matter content (DMC, which is a way of expressing total moisture content) of the samples were analyzed.

Data set [2] has as its system Trichoderma asperellum strain B35. Briefly: Germination rate after air-drying with protectants, strain B35. Format: cell-based. Particulars: after air-drying at room temperature overnight; material:spore 1:1, lecithin 1:10. On the procedure:
as §1, §2, §3, §4, §5

Data set [3] in a line: Dry matter content / residual moisture by heating balance. It counts as physicochemical. Particulars: dry matter content after air-drying; for DMC (%) B35: strain B35; for DMC (%) T1: strain T1. The protocol: For all experiments conducted, dry matter content (as related to total moisture content) was measured by a heating balance apparatus (Sartorius MA 160).
as §5

Consider `OC[C@@H](O)[C@H](O)[C@H](O)[C@@H](O)CO` [Ducitol/Galactitol], for which, in data set [1], the “Germination rate (%) T1” value was “not soluble”. For the same molecule, in data set [2], the “Germination rate (%) B35” value is reported as “not soluble”.
For the molecule `OC[C@@H](O)[C@@H](O)[C@H](O)[C@H](O)CO` [Mannitol], the “Germination rate (%) T1” value in data set [1] was found to be 69.95%. Moreover, in data set [3], the “DMC (%) B35” value was 94.88% and the “DMC (%) T1” value is 97.01%. Also, the “Germination rate (%) B35” value in data set [2] worked out at 51.40%.
The matching figures for `O[C@H]1[C@H](O)[C@@H](O)[C@H](O)[C@@H](O)[C@H]1O` [Myo-Inositol]: 65.03%, 95.59%, 96.6% and 59.05%.
On to `OC[C@@H](O)[C@@H](O)[C@H](O)[C@@H](O)CO` [Sorbitol/Glucitol], for which the “DMC (%) B35” value in data set [3] is reported as 93.99%. Further, the “Germination rate (%) B35” value in data set [2] is given as 13.00%.
The matching figures for `OC[C@H]1O[C@@](CO)(O[C@H]2O[C@H](CO)[C@@H](O)[C@H](O)[C@H]2O)[C@@H](O)[C@@H]1O` [Sucrose]: 91.59% and 36.45%.
Turning to `OC[C@H]1O[C@H](O[C@H]2O[C@H](CO)[C@@H](O)[C@H](O)[C@H]2O)[C@H](O)[C@@H](O)[C@@H]1O` [Trehalose], the “Germination rate (%) T1” value in data set [1] is recorded as 68.75%. In addition, in data set [3], the “DMC (%) B35” value is 91.84% and the “DMC (%) T1” value is given as 90.35%. Also, the “Germination rate (%) B35” value in data set [2] is on record as 43.18%.
As to Chitosan, the “Germination rate (%) T1” value in data set [1] is recorded as “not soluble”. Besides, the “Germination rate (%) B35” value in data set [2] is on record as “not soluble”.
As for Maltodextrin, the “Germination rate (%) T1” value in data set [1] turned out to be 54.55%. Besides, in data set [3], the “DMC (%) B35” value was 92.49% and the “DMC (%) T1” value was 94.46%. Further, the “Germination rate (%) B35” value in data set [2] is 20.38%.
